{"source": "patent US7833795B2", "about": "“Assessment of cardiovascular risk using isoprostane biomarkers and COX-2 selective inhibitors” (The Trustees of the University of Pennsylvania, priority 2004, dated 2010)", "key": {"Male Fisher 344 rats [1]": {"test_system": "Male Fisher 344 rats", "settings": "cited from earlier work"}, "Male Fisher 344 rats [2]": {"test_system": "Male Fisher 344 rats", "test": "Urinary 8,12-iso-iPF2α-VI by LC/MS/MS", "format": "in vivo, rat", "settings": "for 8,12-iso-iPF2a-VI (by LC/MS/MS): urine", "procedure": "(§1) Animals and treatment protocol: Male Fisher 344 rats (260-280 g) obtained from Charles River Laboratories (Raleigh, N.C.) were used in all experiments. The animals were housed three to a cage. Autoclaved hardwood bedding was used in solid-bottom polycarbonate cages with filter tops. Animal rooms were maintained at 20-25° C. with 35-70% relative humidity with alternating 12-hour light and dark cycles. The rats had free access to deionized, reverse-osmosis-treated water and received autoclaved NIH 31 rodent chow (Zeigler Bros., Gardners, Pa.) ad libitum. For all experiments, rats were fasted overnight and then administered intraperitoneal injections of carbon tetrachloride in canola oil. Control rats received an equal volume of canola oil. Fasting continued throughout the experiment. Rats were anesthetized with Nembutal (0.1 ml/100 g body weight) and 5 ml blood was removed from the dorsal aorta proximal to its bifurcation into the common iliac arteries.\nIndomethacin pretreatment: The indomethacin regimen used has been previously shown to inhibit COX activity in rats by 90% (dose of 5 mg/kg s.c. 24 hours, 12 hours, and 2 hours prior to the injection of CCl4) (Jackson, 1989, J. Pharmacol. Exp. Ther. 250: 9-21). An additional booster dose was injected 8 hours after the last injection of CCl4 for the measurements performed 16 hours after treatment with CCl4.\nMeclofenamic acid pretreatment: Meclofenamic acid was injected at a dose of 5 mg/kg i.p. 12 h and 2 h prior to the injection of CCl4.\n(§2) Carbon tetrachloride (CCL4) treatment: Animals from each of the three dose groups (Control-canola oil, 120 mg/kg CCl4 i.p. and 1200 mg/kg CCl4 i.p.) were investigated at three time points (2, 7, and 16 hours after CCl4 injection). Indomethacin-pretreated rats were also investigated at the same three time points, and the meclofenamic acid-pretreated rats were investigated at one time point (7 hours). Each group consisted of five rats for each analysis, except the meclofenamic acid pretreatment group which consisted of six rats. Animal treatment, sample preparation, assessment of liver histology and serum enzyme activities are described elsewhere (Kadiiska et al., 2000, Free Radic. Biol. Med. 28: 838-845; Jackson, 1989, J. Pharmacol. Exp. Ther. 250: 9-21) and were carried out at NIEHS, Research Triangle Park, N.C.\nUrine sample preparation: The day prior to treatment, both experimental and control animals were placed in stainless steel metabolic cages especially designed for urine collection. For Experimental Example 2, animals were placed in metabolic cages immediately after the last injection of indomethacin or meclofenamic acid. Urine was collected (in dark vials) from the animals during the following intervals: 2 to 7 hours and 7 to 16 hours after CCl4 or canola oil (controls) treatment. Urine samples from indomethacin-pretreated rats were collected from 2 to 7 hours and 7 to 16 hours after the injection of CCl4, whereas samples from meclofenamic-acid-pretreated rats were collected only from 2 to 7 hours after the injection. All urine samples were immediately frozen on dry ice and stored at −70° C.\nAnalysis of 8,12-iso-iPF2α-VI, which is, along with its epimer 5-epi-8,12-iso-iPF2α-VI, the most prevalent PGF-ring isoprostane in human urine, was accomplished by addition of a tetradeuterated analog, solid phase extraction and quantitation using liquid chromatography and tandem mass spectroscopy (LC/MS/MS) (Li et al., 1999, Proc. Natl. Acad. Sci. USA 96: 13381-13386). The measurements were performed at the University of Pennsylvania, Philadelphia, Pa."}, "Male Fisher 344 rats [3]": {"test_system": "Male Fisher 344 rats", "test": "Plasma TBARS after CCl4", "format": "in vivo, rat", "procedure": "as §1, §2\n(§3) Plasma sample preparation: Blood (5 ml) was drawn through single draw Vacutainer® needles (21 Gauge) into open Vacutainer® blood collection tubes containing heparin. The tubes were gently inverted 2-3 times for mixing and immediately placed on ice. Blood was centrifuged (2,000 rpm for 10 minutes at 4° C.) no more than 30 minutes after collection, and the plasma was collected, frozen on dry ice and stored at −70° C.\nMalondialdehyde (MDA) in plasma was measured using several different assays. In one assay in Experimental Example 1, free MDA and other thiobarbituric acid-reactive substances (TBARS) (MDA-protein adducts) were measured with the thiobarbituric acid (TBA assay) (Draper et al., 1993, Free Radic. Biol. Med. 15: 353-363). One ml of biological sample was combined with 2.0 ml of 1:1 TCA/TBA (30% trichloracetic acid and 0.67% thiobarbituric acid) in the presence of 200 mM butylated hydroxytoluene (BHT) for spectrophotometric readings (Porter et al., 1976, Biochim. Biophys. ACTA 441: 506-512). The incubation mixture was heated for 20 minutes in boiling water. The samples were centrifuged (2,000 rpm for 10 minutes at 4° C.), and the TBARS concentration was determined based on the absorbance at 532 nm measured with a Beckman DU-7 spectrophotometer at room temperature. Measurements were done at NIEHS, Research Triangle Park, N.C. in the case of Experimental Example 1."}, "Male Fisher 344 rats [4]": {"test_system": "Male Fisher 344 rats", "test": "Plasma protein-bound 3-nitrotyrosine (HPLC-EC)", "format": "in vivo, rat", "procedure": "as §1, §2, §3\nDetermination of tyrosine products employed a method of sample preparation wherein tyrosine analogs were enzymatically hydrolyzed from protein without the need for sample extraction, concentration or derivatization (Henley et al., 1997, Analytical Biochem. 251: 187-195). High performance liquid chromatography was applied in conjunction with coulometric electrochemical array (HPLC-EC) detection to allow ultrasensitive determination of protein-bound 3-nitrotyrosine and 3,4-dihydroxyphenylalanine (3-hydroxytyrosine) as specific in situ biomarkers of protein exposure to reactive nitrating or oxidizing species (Henley et al., 1997, Analytical Biochem. 251: 187-195). Tyrosine and derivatives were analyzed simultaneously, with practical detection limits for tyrosine, 3-nitrotyrosine, and 3,4-Dopa being 10, 50 and 2 pmol respectively, in as little as 20 μL of sample. The measurements were conducted at the Oklahoma Medical Research Foundation (OMRF), Oklahoma City, Okla."}}, "data": [{"compound": "ClC(Cl)(Cl)Cl", "note": "[CCl4, Carbon tetrachloride]", "values": [{"measurement": "serum liver enzyme activities", "setting": "Male Fisher 344 rats [1]; CCl4 120 and 1200 mg/kg, 2, 7, 16 h", "value": "significant increase in many of the enzyme activities studied was observed at the high dose at 2 hours and for both doses at 7 and 16 hours"}, {"measurement": "hepatic effects, histology", "setting": "Male Fisher 344 rats [1]; both doses of CCl4, each time point", "value": "diffuse hepatocyte degeneration and infiltration of inflammatory cells associated with necrosis"}, {"measurement": "8,12-iso-iPF2a-VI (by LC/MS/MS)", "setting": "Male Fisher 344 rats [2]; CCl4 120 mg/kg i.p., 7 h", "value": 36.8, "unit": "ng/mL"}, {"measurement": "8,12-iso-iPF2a-VI (by LC/MS/MS)", "setting": "Male Fisher 344 rats [2]; CCl4 120 mg/kg i.p., 16 h", "value": 32.4, "unit": "ng/mL"}, {"measurement": "8,12-iso-iPF2a-VI (by LC/MS/MS)", "setting": "Male Fisher 344 rats [2]; CCl4 1200 mg/kg i.p., 7 h", "value": 84.3, "unit": "ng/mL"}, {"measurement": "8,12-iso-iPF2a-VI (by LC/MS/MS)", "setting": "Male Fisher 344 rats [2]; CCl4 1200 mg/kg i.p., 16 h", "value": 78.5, "unit": "ng/mL"}, {"measurement": "increase of urinary 8,12-iso-iPF2α-VI", "setting": "Male Fisher 344 rats [2]; high dose CCl4, 7 h", "value": 17, "unit": "fold"}, {"measurement": "increase of urinary 8,12-iso-iPF2α-VI", "setting": "Male Fisher 344 rats [2]; high dose CCl4, 16 h", "value": 7, "unit": "fold"}, {"measurement": "TBARS", "setting": "Male Fisher 344 rats [3]; CCl4 120 mg/kg i.p., 2 h", "value": 4.1, "unit": "µM"}, {"measurement": "TBARS", "setting": "Male Fisher 344 rats [3]; CCl4 120 mg/kg i.p., 7 h", "value": 10.4, "unit": "µM"}, {"measurement": "TBARS", "setting": "Male Fisher 344 rats [3]; CCl4 120 mg/kg i.p., 16 h", "value": 13.0, "unit": "µM"}, {"measurement": "TBARS", "setting": "Male Fisher 344 rats [3]; CCl4 1200 mg/kg i.p., 2 h", "value": 4.2, "unit": "µM"}, {"measurement": "TBARS", "setting": "Male Fisher 344 rats [3]; CCl4 1200 mg/kg i.p., 7 h", "value": 9.4, "unit": "µM"}, {"measurement": "TBARS", "setting": "Male Fisher 344 rats [3]; CCl4 1200 mg/kg i.p., 16 h", "value": 10.7, "unit": "µM"}, {"measurement": "3-Nitrotyrosine, bound", "setting": "Male Fisher 344 rats [4]; CCl4 120 mg/kg i.p., 2 h", "value": 0.24, "unit": "µM"}, {"measurement": "3-Nitrotyrosine, bound", "setting": "Male Fisher 344 rats [4]; CCl4 120 mg/kg i.p., 7 h", "value": 0.39, "unit": "µM"}, {"measurement": "3-Nitrotyrosine, bound", "setting": "Male Fisher 344 rats [4]; CCl4 120 mg/kg i.p., 16 h", "value": 0.43, "unit": "µM"}, {"measurement": "3-Nitrotyrosine, bound", "setting": "Male Fisher 344 rats [4]; CCl4 1200 mg/kg i.p., 2 h", "value": 0.26, "unit": "µM"}, {"measurement": "3-Nitrotyrosine, bound", "setting": "Male Fisher 344 rats [4]; CCl4 1200 mg/kg i.p., 7 h", "value": 0.42, "unit": "µM"}, {"measurement": "3-Nitrotyrosine, bound", "setting": "Male Fisher 344 rats [4]; CCl4 1200 mg/kg i.p., 16 h", "value": 0.38, "unit": "µM"}]}]}
